What was measured:
corn = assay: Test B pre/postemergence corn; assay type: in vivo, Zea mays
Outline: (§1)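 Herbicidal effect was estimated by eye on a ten-point control scale after plants spent twelve to sixteen days in a greenhouse following soil or foliar treatment. Foliar sprays targeted plants at one to four leaves; all doses were formulated in a non-phytotoxic solvent with surfactant.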

crabgrass = assay: Test B pre/postemergence crabgrass; assay type: in vivo, Digitaria sanguinalis
Outline: as §1

blackgrass = assay: Test B pre/postemergence blackgrass; assay type: in vivo, Alopecurus myosuroides
Outline: as §1

rape = assay: Test B pre/postemergence rape; assay type: in vivo, Brassica napus
Outline: as §1

morningglory = assay: Test B pre/postemergence morningglory; assay type: in vivo, Ipomoea hederacea
Outline: as §1

soybean = assay: Test B pre/postemergence soybean; assay type: in vivo, Glycine max
Outline: as §1

surinam grass = assay: Test B pre/postemergence surinam grass; assay type: in vivo, Brachiaria decumbens
Outline: as §1

wild oat = assay: Test B pre/postemergence wild oat; assay type: in vivo, Avena fatua
Outline: as §1

purple nutsedge = assay: Test B pre/postemergence purple nutsedge; assay type: in vivo, Cyperus rotundus
Outline: as §1

velvetleaf = assay: Test B pre/postemergence velvetleaf; assay type: in vivo, Abutilon theophrasti
Outline: as §1

cocklebur = assay: Test B pre/postemergence cocklebur; assay type: in vivo, Xanthium strumarium
Outline: as §1

sugar beet = assay: Test B pre/postemergence sugar beet; assay type: in vivo, Beta vulgaris
Outline: as §1

giant foxtail = assay: Test B pre/postemergence giant foxtail; assay type: in vivo, Setaria faberii
Outline: as §1

pigweed = assay: Test B pre/postemergence pigweed; assay type: in vivo, Amaranthus retroflexus
Outline: as §1

bedstraw = assay: Test B pre/postemergence bedstraw; assay type: in vivo, Galium aparine; conditions: Preemergence
Outline: as §1

wheat = assay: Test B pre/postemergence wheat; assay type: in vivo, Triticum aestivum
Outline: as §1

[1] = Postemergence, Rate 125 g/ha, scale of 0 to 10 where 0 is no effect and 10 is complete control
[2] = Postemergence, Rate 1000 g/ha, scale 0 to 10 (0 no effect, 10 complete control)
[3] = Preemergence, Rate 125 g/ha, scale of 0 to 10 where 0 is no effect and 10 is complete control
[4] = Preemergence, Rate 250 g/ha, scale 0 (no effect) to 10 (complete control)
[5] = Rate 250 g/ha, Postemergence, scale 0 to 10, 0 is no effect, 10 is complete control
[6] = Rate 500 g/ha, Postemergence, scale 0 to 10, 0 is no effect, 10 is complete control
[7] = Rate 500 g/ha, Preemergence, scale 0 to 10 (0 no effect, 10 complete control)
[8] = Rate 1000 g/ha, Preemergence, scale 0 to 10 (0 no effect, 10 complete control)

## CCOP(=O)(Cn1c(=O)on(C(=O)N(c2ccc(F)cc2F)C(C)C)c1=O)OCC [Compound 736]
corn; [1]
  Corn plant response rating: 4
corn; [2]
  Corn plant response rating: 4
corn; [3]
  Plant response rating, Corn: 2
corn; [4]
  Corn plant response rating: 2
corn; [5]
  Corn plant response rating: 3
corn; [6]
  Corn plant response rating: 4
corn; [7]
  Corn plant response rating: 2
corn; [8]
  Plant response rating, Corn: 9
crabgrass; [1]
  Crabgrass plant response rating: 3
crabgrass; [2]
  Crabgrass plant response rating: 6
crabgrass; [3]
  Plant response rating, Crabgrass: 3
crabgrass; [4]
  Crabgrass plant response rating: 4
crabgrass; [5]
  Crabgrass plant response rating: 3
crabgrass; [6]
  Crabgrass plant response rating: 4
crabgrass; [7]
  Crabgrass plant response rating: 9
crabgrass; [8]
  Plant response rating, Crabgrass: 9
blackgrass; [1]
  Blackgrass plant response rating: 0
blackgrass; [2]
  Blackgrass plant response rating: 7
blackgrass; [3]
  Plant response rating, Blackgrass: 2
blackgrass; [4]
  Blackgrass plant response rating: 4
blackgrass; [5]
  Blackgrass plant response rating: 2
blackgrass; [6]
  Blackgrass plant response rating: 3
blackgrass; [7]
  Blackgrass plant response rating: 9
blackgrass; [8]
  Plant response rating, Blackgrass: 10
rape; [1]
  Rape plant response rating: 0
rape; [2]
  Rape plant response rating: 0
rape; [3]
  Plant response rating, Rape: 0
rape; [4]
  Rape plant response rating: 0
rape; [5]
  Rape plant response rating: 0
rape; [6]
  Rape plant response rating: 0
rape; [7]
  Rape plant response rating: 2
rape; [8]
  Plant response rating, Rape: 2
morningglory; [1]
  Morningglory plant response rating: 6
morningglory; [2]
  Morningglory plant response rating: 7
morningglory; [3]
  Plant response rating, Morningglory: 0
morningglory; [4]
  Morningglory plant response rating: 2
morningglory; [5]
  Morningglory plant response rating: 6
morningglory; [6]
  Morningglory plant response rating: 5
morningglory; [7]
  Morningglory plant response rating: 6
morningglory; [8]
  Plant response rating, Morningglory: 6
soybean; [1]
  Soybean plant response rating: 3
soybean; [3]
  Plant response rating, Soybean: 0
soybean; [4]
  Soybean plant response rating: 2
soybean; [5]
  Soybean plant response rating: 4
soybean; [6]
  Soybean plant response rating: 3
soybean; [7]
  Soybean plant response rating: 2
soybean; [8]
  Plant response rating, Soybean: 3
Surinam grass; [1]
  B. signalgrass plant response rating: 0
Surinam grass; [2]
  B. signalgrass plant response rating: 7
Surinam grass; [3]
  Plant response rating, B. signalgrass: 3
Surinam grass; [4]
  B. signalgrass plant response rating: 3
Surinam grass; [5]
  B. signalgrass plant response rating: 0
Surinam grass; [6]
  B. signalgrass plant response rating: 0
Surinam grass; [7]
  B. signalgrass plant response rating: 8
Surinam grass; [8]
  Plant response rating, B. signalgrass: 9
Wild oat; [1]
  Wild oats plant response rating: 2
Wild oat; [3]
  Plant response rating, Wild oats: 2
Wild oat; [4]
  Wild oats plant response rating: 9
Wild oat; [5]
  Wild oats plant response rating: 3
Wild oat; [6]
  Wild oats plant response rating: 3
Wild oat; [7]
  Wild oats plant response rating: 9
Wild oat; [8]
  Plant response rating, Wild oats: 10
Purple nutsedge; [1]
  Nutsedge plant response rating: 0
Purple nutsedge; [2]
  Nutsedge plant response rating: 5
Purple nutsedge; [3]
  Plant response rating, Nutsedge: 0
Purple nutsedge; [4]
  Nutsedge plant response rating: 0
Purple nutsedge; [5]
  Nutsedge plant response rating: 0
Purple nutsedge; [6]
  Nutsedge plant response rating: 2
Purple nutsedge; [7]
  Nutsedge plant response rating: 10
Purple nutsedge; [8]
  Plant response rating, Nutsedge: 8
velvetleaf; [1]
  Velvetleaf plant response rating: 2
velvetleaf; [3]
  Plant response rating, Velvetleaf: 0
velvetleaf; [4]
  Velvetleaf plant response rating: 0
velvetleaf; [5]
  Velvetleaf plant response rating: 2
velvetleaf; [6]
  Velvetleaf plant response rating: 3
velvetleaf; [7]
  Velvetleaf plant response rating: 4
velvetleaf; [8]
  Plant response rating, Velvetleaf: 3
cocklebur; [1]
  Cocklebur plant response rating: 0
cocklebur; [2]
  Cocklebur plant response rating: 10
cocklebur; [3]
  Plant response rating, Cocklebur: 0
cocklebur; [4]
  Cocklebur plant response rating: 2
cocklebur; [5]
  Cocklebur plant response rating: 0
cocklebur; [6]
  Cocklebur plant response rating: 3
cocklebur; [7]
  Cocklebur plant response rating: 2
cocklebur; [8]
  Plant response rating, Cocklebur: 2
Sugar beet; [1]
  Sugarbeets plant response rating: 0
Sugar beet; [3]
  Plant response rating, Sugarbeets: 0
Sugar beet; [4]
  Sugarbeets plant response rating: 0
Sugar beet; [5]
  Sugarbeets plant response rating: 0
Sugar beet; [6]
  Sugarbeets plant response rating: 0
Sugar beet; [7]
  Sugarbeets plant response rating: 3
Sugar beet; [8]
  Plant response rating, Sugarbeets: 5
Giant foxtail; [1]
  Giant foxtail plant response rating: 2
Giant foxtail; [2]
  Giant foxtail plant response rating: 6
Giant foxtail; [3]
  Plant response rating, Giant foxtail: 8
Giant foxtail; [4]
  Giant foxtail plant response rating: 9
Giant foxtail; [5]
  Giant foxtail plant response rating: 2
Giant foxtail; [6]
  Giant foxtail plant response rating: 7
Giant foxtail; [7]
  Giant foxtail plant response rating: 9
Giant foxtail; [8]
  Plant response rating, Giant foxtail: 8
pigweed; [1]
  Redroot pigweed plant response rating: 2
pigweed; [2]
  Redroot pigweed plant response rating: 3
pigweed; [3]
  Plant response rating, Redroot pigweed: 0
pigweed; [4]
  Redroot pigweed plant response rating: 2
pigweed; [6]
  Redroot pigweed plant response rating: 0
pigweed; [7]
  Redroot pigweed plant response rating: 2
pigweed; [8]
  Plant response rating, Redroot pigweed: 2
bedstraw; Rate 125 g/ha, scale of 0 to 10 where 0 is no effect and 10 is complete control
  Plant response rating, Bedstraw: 0
bedstraw; Rate 250 g/ha, scale 0 (no effect) to 10 (complete control)
  Bedstraw plant response rating: 0
bedstraw; Rate 500 g/ha, scale 0 to 10 (0 no effect, 10 complete control)
  Bedstraw plant response rating: 8
wheat; [1]
  Wheat plant response rating: 2
wheat; [3]
  Plant response rating, Wheat: 3
wheat; [4]
  Wheat plant response rating: 3
wheat; [5]
  Wheat plant response rating: 2
wheat; [6]
  Wheat plant response rating: 2
wheat; [7]
  Wheat plant response rating: 8
wheat; [8]
  Plant response rating, Wheat: 9

— patent publication US6737383B1, “Herbicidal oxadiazolidines” (priority 1999, dated 2004)
